Measurements published in PMC7144209, “Design, synthesis and anticancer activity of naphthoquinone derivatives” (Journal of Enzyme Inhibition and Medicinal Chemistry, 2020).

Legend:
L02 = test: MTT cell viability assay, L02 cells; type: cell-based; conditions: Homo sapiens, n = 3
SGC-7901 cells = test: Acridine orange (AO) staining of acidic vesicles; type: cell-based, human; conditions: SGC-7901, 1, 2, and 4 μM, 48 h
Protocol: PH-sensitive Acridine orange (AO) was used to label acidic vesicles. Human gastric cancer cells were seeded in laser confocal dishes at 10,000/ml. After indicated treatment of compound 12 (1 μM, 2 μM, 4 μM) for 48 h, cells were stained with AO (1 μg/ml) for 15 min at the cell culture incubator. After the cells were washed by PBS, pictures were acquired under laser confocal microscope.
(§1) Another typical feature of autophagy is the accumulation of the acidic autophagic vacuoles (AVOs)[45]^,[46]. To verify the development of AVOs, Acridine Orange (AO) staining was used to examine whether the acidic vesicular organelles in SGC-7901 cells were increased. AO produces red fluorescence when it accumulates in acidic regions such as autophagy lysosomes and lysosomes and produces bright green fluorescence in the cytoplasm and the nucleus. […] GFP-LC3 indicating technique was also used to detect the autophagy at the same time. When autophagy is formed, multiple bright green fluorescent spots will form as the GFP-LC3 fusion protein can translate to autophagosome membrane. From Figure 6(C), compared to the blank control group, GFP-LC3 puncta were increased after cells treated with compound 12 (4 μM) meanwhile decreased after treated with compound 12 (4 μM) and 3-MA (500 μM).

[1] = tested on: GFP-LC3 in SGC-7901 cells; test: GFP-LC3 transfection, puncta by confocal microscopy; type: cell-based, human
Protocol: A plasmid GFP-tagged LC3 reporter gene (0.8 μg/500 μL) was transfected into SGC-7901 cells by Lipofectamine 2000, then cells were incubated for 24 h. After different treatments for 24 h, cells were fixed with 4% paraformaldehyde for 20 min, and washed three times with PBS. Finally, Laser confocal dishes were analysed using confocal microscope.
as §1

U87 = test: MTT cell viability assay, U87 cells; type: cell-based; conditions: 48 h, n = 3
Protocol: (§2) MGC-803, SGC-7901, U87 and SMMC-7721 cell lines were cultured in DMEM supplemented with 10% foetal bovine serum, 100 IU/mL penicillin/streptomycin. The cells were incubated in an atmosphere containing 5% CO2 at 37 °C.
(§3) MGC-803, SGC-7901, U87 and SMMC-7721 cells were plated in 96-well plate at 7000 per well. Cells were incubated with the different concentrations of the compounds for 48 h. Subsequently, MTT (0.5 mg/mL) were used to test the cell viability, then 150 μL DMSO was added to each well after cells were incubated for 4 h and the absorbance was measured at 492 nm.

[2] = tested on: PI3K/AKT/MTOR signalling pathway; test: Western blot of PI3K/AKT/MTOR pathway; type: cell-based, human
Protocol: (§4) RIPA lysis buffer was used to dissociate the treated cells. Cells were lysed and the supernatant was harvested after centrifuged for 30 min. The cell proteins were separated using Sodium dodecyl sulphate-polyacrylamide gel electrophoresis, and then they were transferred to the PVDF membranes. The membranes were blocked with skimmed milk solution (5%) for 2 h, then incubated with primary antibodies (1:1000, cst) for 20 h at 4 °C. The membranes were detected by chemiluminescence reagent after probed with the secondary antibody for 1 h.
As a therapeutic target for cancer, the PI3K/AKT/MTOR signalling pathway participates in regulating autophagy. Consequently, Western blot experiment was used to explore the impact of compound 12 on the level of phospho-PI3K, phospho-AKT and phospho-mTOR. […] 3-MA (3-methyladenine) is also a PI3K inhibitor[57], so compound 12 (4 μM) with 3-MA (500 μM) were used to treated the cells.

[3] = Metabolic stability assay in human liver microsomes; type: in vitro ADME
Protocol: To initially evaluate the stability of compound 12, we then tested the liver microsome stability of this compound. The Mean % Parent Remaining of compound 12 in metabolic stability test were 100, 95, 85, 80, and 70 at 0, 15, 30, 45, and 60 min, respectively.

MGC-803 = test: MTT cell viability assay, MGC-803 cells; type: cell-based; conditions: n = 3
Protocol: as §2, §3

[4] = tested on: SGC-7901, MGC-803, SMMC-7721, U-87 cell lines; test: MTT anticancer activity, summary in words over the cell line panel; type: cell-based; conditions: MTT assay
Protocol: as §3
Compounds 1–24 were detected for anticancer activities against SGC-7901, MGC-803, SMMC-7721, U-87 cell lines in vitro by the MTT assay, and ADM was used as the positive control. From Table 1, when the phenolic hydroxyls of naphthoquinone moiety were converted to ether, the activity was missing. […] So colony formation assay of this compound (Figure 4) was used to investigate the effect of it on cell proliferation in SGC-7901 cells. The experiment examined the ability for producing colonies after the cells were treated with the cell death agents[35]^,[36].

[5] = tested on: LC3-II, P62, Beclin1 in SGC-7901 cells; test: Western blot of autophagy-related proteins; type: cell-based, human; conditions: SGC-7901, Western blot
Protocol: as §4
Autophagy is a process of lysosomal degradation that can deliver the cytoplasmic cargo to the lysosome. To assess whether compound 12 could promote autophagy on SGC-7901 cells, the expressions of autophagy-related proteins were examined. Autophagy will be switched on when LC3-I was converted into LC3-II, and the level of LC3-II involves in the formation of autophagosome. Meanwhile p62 is a marker of the degradative lysosome[43]^,[44]. As shown in Figure 6(A), compound can decrease the level of P62 and increase the expressions of LC3II and Beclin1.

[6] = compound 12 4 μM with 3-MA 500 μM

CC(C)=CCC(OC(=O)CCC(=O)Nc1ccc(Oc2ccccc2)cc1)C1=CC(=O)c2c(O)ccc(O)c2C1=O (stereo not shown) [Compound 12, 1-(5,8-dihydroxy-1,4-dioxo-1,4-dihydronaphthalen-2-yl)-4-methylpent-3-en-1-yl-4-oxo-4-((4-phenoxyphenyl)amino)butanoate]
IC50 (L02): > 50 µM | red fluorescently labelled acidic vesicles (AO staining) (SGC-7901 cells): accumulated obviously | GFP-LC3 puncta vs blank control ([1]; SGC-7901, compound 12 4 μM): increased | GFP-LC3 puncta ([1]; SGC-7901, compound 12 4 μM and 3-MA 500 μM): decreased | IC50 (U87): 3.8 ± 0.2 µM | IC50 (U87; Homo sapiens, U-87 MG): 3.85 µM | expression of p-AKT ([2]; 1, 2, 4 μM, 48 h): decreased in a dose-dependent manner | expression of p-MTOR ([2]; 1, 2, 4 μM, 48 h): decreased in a dose-dependent manner | expression of p-PI3K ([2]; 1, 2, 4 μM, 48 h): decreased in a dose-dependent manner | ratio of p-AKT/AKT compared with compound 12 alone [2, 6]: increased | ratio of p-MTOR/MTOR compared with compound 12 alone [2, 6]: increased | ratio of p-PI3K/PI3K compared with compound 12 alone [2, 6]: increased | Mean % Parent Remaining ([3]; 0 min): 100% | Mean % Parent Remaining ([3]; 15 min): 95% | Mean % Parent Remaining ([3]; 30 min): 85% | Mean % Parent Remaining ([3]; 45 min): 80% | Mean % Parent Remaining ([3]; 60 min): 70% | microsomal CLint ([3]; human, read-out: calculated clearance rate): > 110 µL/min/mg | half-life ([3]; human, read-out: half-life (t1/2)): > 1 h | IC50 (MGC-803; 48 h): 4.1 ± 0.6 µM | IC50 (MGC-803; Homo sapiens, MGC-803, 48 h): 4.07 µM | anticancer activity (in words) [4]: good activity | expression of Beclin1 [5]: increase | expression of LC3II [5]: increase | level of P62 [5]: decrease
